We go through three compounds from patent EP0884054B9, “Fixed-dose association of an angiotensin-converting enzyme inhibitor and of a calcium channel antagonist for the treatment of cardiovascular illnesses” (Procter & Gamble Pharmaceuticals S.A.R.L., priority 1997, dated 1998).

Series [1] relates to male patients with slight-moderate AHT. The series can be described thus: Placebo-controlled open clinical trial in slight-moderate AHT. The format is in vivo. To be noted: single-drug treatment, 5 mg once a day for 2 weeks (9 patients nitrendipine, 11 patients enalapril). How it is done: A placebo-controlled, open clinical trial was carried out in male patients with slight-moderate AHT, defined as systolic blood pressure values (SAT) between 165 and 144 mmHg and diastolic blood pressure values (DAT) between 95 and 105 mmHg, taken in decubitus position after 5 minutes' rest.

Series [2] deals with rat experimentally hypertense by aortic coarctation. As to the kind of experiment: Antihypertensive activity in the rat experimentally hypertense by aortic coarctation (conscious animal). The format is in vivo. Particulars: for diastolic arterial pressure / systolic arterial pressure / distolic arterial pressure: mean(SD). How it is done:
The antihypertensive activity of the association of enalapril and nitrendipine was tested in comparison with each one of the isolated components in an experimental model of hypertension by arterial coarction in the rat. Measurement of the arterial pressure was carried out with the animal conscious. The doses tested were as follows: • Enalapril maleate 1 mg/kg (p.o.) • Nitrendipine 3 mg/kg (p.o.) • Enalapril maleate and Nitrendipine (1 and 3) mg/kg (p.o.) • Enalapril maleate and Nitrendipine (0.5 and 1.5) mg/kg (p.o.) The control group received the carrier (CMC Carboxymethylcellulose 1% en distilled water), the administration volume being […] (p.o.).

The conditions of series [3]: at 10 minutes; stable formulation of enalapril sodium salt according to EP-A-0545194; cited from earlier work.
Series [4] deals with patients with congestive heart failure. To be noted: long-term treatment (over one year), cited from earlier work.
The mark [5] stands for this setting: 3 mg/kg p.o., 0 minutes following administration.
Setting [6] is: 3 mg/kg p.o., 5 minutes following administration.
Where [7] appears, read: 3 mg/kg p.o., 15 minutes following administration.
Setting [8] is: 3 mg/kg p.o., 30 minutes following administration.
The mark [9] stands for this setting: 3 mg/kg p.o., 45 minutes following administration.
Setting [10] is: 3 mg/kg p.o., 60 minutes following administration.
Where [11] appears, read: 3 mg/kg p.o., 120 minutes following administration.
Setting [12] is: 3 mg/kg p.o., 240 minutes following administration.
The mark [13] stands for this setting: 3 mg/kg p.o., 360 minutes following administration.
The mark [14] stands for this setting: 3 mg/kg p.o., 540 minutes following administration.
Setting [15] is: 1 mg/kg p.o., 0 minutes following administration.
Where [16] appears, read: 1 mg/kg p.o., 5 minutes following administration.
The mark [17] stands for this setting: 1 mg/kg p.o., 15 minutes following administration.
[18] abbreviates: 1 mg/kg p.o., 30 minutes following administration.
The mark [19] stands for this setting: 1 mg/kg p.o., 45 minutes following administration.
Where [20] appears, read: 1 mg/kg p.o., 60 minutes following administration.
Where [21] appears, read: 1 mg/kg p.o., 120 minutes following administration.
[22] abbreviates: 1 mg/kg p.o., 240 minutes following administration.
The mark [23] stands for this setting: 1 mg/kg p.o., 360 minutes following administration.
Setting [24] is: 1 mg/kg p.o., 540 minutes following administration.

Counter-ions that a name gives are not always drawn. Like-named read-outs stand apart in the source and are kept apart here.

Turning to `CCOC(=O)C1=C(C)NC(C)=C(C(=O)OC)C1c1cccc([N+](=O)[O-])c1` (racemic) [Nitrendipine, ethyl and methyl ester of the acid 1,4-dihydro-2,6-dimethyl-4-(3-nitrophenyl)-3,5-pyridindicarboxylic], the “blood pressure normalized, number of patients” value in series [1] is reported as 1 patients. The diastolic arterial pressure in series [2] (setting [5]) was 136(5); in series [2] (setting [6]), 105(1); in series [2] (setting [7]), 83(4); in series [2] (setting [8]) it was 84(2); in series [2] (setting [9]), 88(5); in series [2] (setting [10]) it was 92(1). Moreover, the diastolic arterial pressure is recorded as 113(4) in series [2] (setting [11]), 128(3) in series [2] (setting [12]), 132(2) in series [2] (setting [13]) and 131(5) in series [2] (setting [14]). The systolic arterial pressure in series [2] (setting [5]) is on record as 172(6); in series [2] (setting [6]), 119(2); in series [2] (setting [7]), 117(6); in series [2] (setting [8]) it was 112(4); in series [2] (setting [9]), 115(3); in series [2] (setting [10]) it was 119(6). Moreover, the systolic arterial pressure in series [2] (setting [11]) was 141(5); in series [2] (setting [12]), 163(2); in series [2] (setting [13]), 169(1); in series [2] (setting [14]) it was 160(5). Besides, the “return to basal values following administration” value in series [2] (oral administration, 3 mg/kg) stood at 4 h.
As for `CCOC(=O)[C@H](CCc1ccccc1)N[C@@H](C)C(=O)N1CCC[C@H]1C(=O)O` [Enalapril maleate, 1-(N-((S)-1-ethoxycarbonyl-3-fenilpropyl) -L-alanil)-L-prolina], the systolic arterial pressure in series [2] (setting [15]) is 168(6); in series [2] (setting [16]) it was 165(5); in series [2] (setting [17]), 144(2); in series [2] (setting [18]), 139(3); in series [2] (setting [19]), 139(6); in series [2] (setting [20]) it was 134(1). Further, the systolic arterial pressure was 141(3) in series [2] (setting [21]), 146(1) in series [2] (setting [22]), 148(4) in series [2] (setting [23]) and 165(6) in series [2] (setting [24]). Also, in series [2] (oral administration, 1 mg/kg), the antihypertensive effect entry is “moderate antihypertensive effect”. Further, in series [2] (oral administration, 1 mg/kg), the “antihypertensive effect sustained following administration” value is recorded as “up to 6 hours”.
Consider `CCOC(=O)[C@H](CCc1ccccc1)N[C@@H](C)C(=O)N1CCC[C@H]1C(=O)O` [enalapril, 1-(N-((S)-1-ethoxycarbonyl-3-fenilpropyl) -L-alanil)-L-prolina], for which the “blood pressure normalized, number of patients” value in series [1] amounted to 2 patients. In addition, the distolic arterial pressure is 138(5) in series [2] (setting [15]); 138(3) in series [2] (setting [16]); 123(1) in series [2] (setting [17]); 116(4) in series [2] (setting [18]); 117(1) in series [2] (setting [19]); 109(1) in series [2] (setting [20]). For the same compound, the distolic arterial pressure in series [2] (setting [21]) was 116(5); in series [2] (setting [22]), 116(3); in series [2] (setting [23]) it was 117(2); in series [2] (setting [24]) it was 126(4). Further, the “dissolution rate of enalapril” value in series [3] is 100%. For the same compound, the “improvement of mortality and morbidity rates” value in series [4] (severe heart failure (CONSENSUS)) is reported as “approximately 30%”; in series [4] (slight and moderate heart failure (SOLVD)) it was “approximately 15%”.
